Reference: patent US20250268901A1, “CRYSTAL FORM OF AZETIDINE-SUBSTITUTED COMPOUND” (MEDSHINE DISCOVERY INC., priority 2020, published 2025)
Each block holds one compound with its values, some of them ahead of it.

Experiments:
[1] = test system: pancreatic cancer MIA-Paca2 cell; details: subcutaneous xenograft tumor model of pancreatic cancer MIA-Paca2 cell; cited from earlier work
[2] = test system: KRAS G12C; details: cited from earlier work
[3] = test system: NCI-H358 cells; experiment: Cell proliferation assay (CellTiter-Glo), NCI-H358; type: cell-based, Human
Description: (§1) The effect of the compound on cell proliferation was examined on NC-H358, MA-PA-CA-2, A375, SW1463, and A427 cells.
Medium for H358 cell line: 89% RPMI1640 medium+10% fetal bovine serum+1% P/S
(§2) • 1. The medium and pancreatin used in the process of cell passaging were pre-heated in a water bath at 37° C. • 2. The cells were rinsed with pancreatin and digested with pancreatin until the cells were detached. A culture solution was added, and the cells and the culture solution were well mixed to stop the digestion. • 3. The cells were pipetted into a 15 mL centrifuge tube, 0.01 mL of cell suspension was pipetted onto a count plate, and cells were counted. • 4. According to the cell densities shown in the table below, a proper amount of each type of cells was transferred to a 15 mL centrifuge tube and made up to a volume of 9 mL with a corresponding cell culture solution.
• 5. […]
(§3) • 1. On the day of compound treatment, the day-0 test plate was removed from the incubator, 50 µL of Cell Titer Glo was added, and the plate was centrifuged at 1000 rpm for 10 s, shaken at room temperature for 10 min, then centrifuged again at 1000 rpm for 10 s, and read on Envision. • 2. […] To each well of the 96-well plates, 50 µL of Cell Titer-Glo was added, and the plates were centrifuged at 1000 rpm for 10 s, shaken at room temperature for 10 min, then centrifuged again at 1000 rpm for 10 s, and read on Envision. • 3. […]

[4] = test system: A375 cells; experiment: Cell proliferation assay (CellTiter-Glo), A375; type: cell-based, Human
Description: as §1
Medium for A375 cell line: 89% DMEM medium+10% fetal bovine serum+1% P/S
as §2
• 5. […]
as §3

[5] = test system: A427 cells; experiment: Cell proliferation assay (CellTiter-Glo), A427; type: cell-based, Human
Description: as §1
Medium for A427 cell line: 89% EMEM medium+10% fetal bovine serum+1% P/S
as §2
• 5. […]
as §3

[6] = test system: MIA-PA-CA-2 cells; experiment: Cell proliferation assay (CellTiter-Glo), MIA-PA-CA-2; type: cell-based, Human
Description: as §1
Medium for MIA-PA-CA-2 cell line: 86.5% DMEM medium+10% fetal bovine serum+2.5% horse serum+1% P/S
as §2, with “According to the cell densities shown in the table below, a proper amount of each type of cells was transferred to a 15 mL centrifuge tube and made up to a volume of 9 mL with a corresponding cell culture solution.” left out
as §3

[7] = test system: SW1463 cells; experiment: Cell proliferation assay (CellTiter-Glo), SW1463; type: cell-based, Human
Description: as §1
Medium for SW1463 cell line: 89% Leibovit2 sL-15 medium+10% fetal bovine serum+1% P/S
as §2, with “According to the cell densities shown in the table below, a proper amount of each type of cells was transferred to a 15 mL centrifuge tube and made up to a volume of 9 mL with a corresponding cell culture solution.” left out
as §3

[8] = Solid stability of crystal form (XRPD and HPLC); type: physicochemical
Description: The purity and solubility of a sample are determined through a high performance liquid chromatograph Agilent 1260 HPLC.
To evaluate the solid stability of crystal form C of the compound of formula (I), crystal form C of the compound of formula (I) was subjected to stability testing under affecting factor conditions (high temperature, high humidity, and light), 60° C./75% RH conditions, and 40° C./75% RH conditions. Crystal form C was placed under a high-temperature condition (60° C., closed) and a high-humidity condition (92.5% RH, wrapped in a sealing film, with 5 small holes made) for 1 week and 2 weeks, placed in a closed container in visible light and ultraviolet light (a light-shielding control group was set at the same time, and the sample was wrapped in tinfoil) according to the ICH conditions (visible light illumination reached 1.2E+06 Lux hrs, and ultraviolet light illumination reached 200 W·hrs/m2), and meanwhile placed under 60° C./75% RH conditions (wrapped in a sealing film, with 5 small holes made) for 1 month and 2 months and under 40° C./75% RH conditions (wrapped in a sealing film, with 5 small holes made) for 1 month, 2 months, and 3 months. All the stability samples were tested for crystal form change by XRPD analysis and were analyzed by HPLC.

[9] = Pressure stability of crystal form (hydraulic press, XRPD); type: physicochemical
Description: The Hydraulic press experiment is carried out on an SYP-5BS manual press, and the pressure put on to the sample is about 350 MPa.
Crystal form C of the compound of formula (I) was added to a circular mold (6 mm in diameter) and pressurized to about 350 MPa. A small piece of the sheet-like sample was directly taken for XRPD analysis.

[10] = Light-shielding control group, simultaneously with visible + ultraviolet
[11] = Visible + ultraviolet (ICH conditions), 1.2E+06 Lux · hrs, 300 W · hrs/m^2

Structure (SMILES): C=CC(=O)N1CCN(c2ncnc3c(F)c(-c4c(O)cccc4F)c(Cl)cc23)CC1 [ARS-1620]
tumor growth inhibition [1]: can effectively inhibit tumor growth | cell antiproliferative activity at the cellular level [2]: nM level

IC50 ([3]; Homo sapiens, NCI-H358, 120 h incubation, CellTiter-Glo): 13 ± 1.85 nM | IC50 ([4]; Homo sapiens, A-375, A375, 72 h incubation, CellTiter-Glo): 4640 ± 89.8 nM | IC50 ([6]; Homo sapiens, MIA PaCa-2, MIA-PA-CA-2, 72 h incubation, CellTiter-Glo): 34 ± 7.03 nM | IC50 ([7]; Homo sapiens, SW1463, 144 h incubation, CellTiter-Glo): 112 ± 32.7 nM
Structure (SMILES): C=CC(=O)N1CCN(c2nc(N3CC(N(CC)CC)C3)nc3c(=O)n(-c4c(N)c(Cl)cc(Cl)c4F)c(C(F)(F)F)cc23)CC1 [Compound of formula (I)]
inhibitory activity against proliferation ([3]; human non-small cell lung cancer cell NCI-H358): good inhibitory activity | activity on cell ([4]; melanoma cell A375): weak activity | IC50 ([5]; Homo sapiens, A-427, A427, 72 h incubation, CellTiter-Glo): > 6980 nM | activity on cell ([5]; human lung cancer cell A427): weak activity | inhibitory activity against proliferation ([6]; pancreatic cancer cell MIA-PA-CA-2): good inhibitory activity | inhibitory activity against proliferation ([7]; human rectal adenocarcinoma cell SW1463): good inhibitory activity

Crystal form change ([8]; 40° C./75% RH, 1 month): Unchanged | Purity (%) ([8]; 40° C./75% RH, 1 month): 98.00% | Relative purity ([8]; 40° C./75% RH, 1 month): 100.2% | Crystal form change ([8]; 40° C./75% RH, 2 months): Unchanged | Purity (%) ([8]; 40° C./75% RH, 2 months): 97.92% | Relative purity ([8]; 40° C./75% RH, 2 months): 100.1% | Crystal form change ([8]; 40° C./75% RH, 3 months): Unchanged | Purity (%) ([8]; 40° C./75% RH, 3 months): 98.02% | Relative purity ([8]; 40° C./75% RH, 3 months): 100.2% | Crystal form change ([8]; 60° C., closed, 1 week): Unchanged | Purity (%) ([8]; 60° C., closed, 1 week): 97.99% | Relative purity ([8]; 60° C., closed, 1 week): 100.1% | Crystal form change ([8]; 60° C., closed, 2 weeks): Unchanged | Purity (%) ([8]; 60° C., closed, 2 weeks): 97.98% | Relative purity ([8]; 60° C., closed, 2 weeks): 100.1% | Crystal form change ([8]; 60° C./75% RH, 1 month): Unchanged | Purity (%) ([8]; 60° C./75% RH, 1 month): 97.92% | Relative purity ([8]; 60° C./75% RH, 1 month): 100.1% | Crystal form change ([8]; 60° C./75% RH, 2 months): Unchanged | Purity (%) ([8]; 60° C./75% RH, 2 months): 97.98% | Relative purity ([8]; 60° C./75% RH, 2 months): 100.1% | Crystal form change ([8]; 92.5% RH, 1 week): Unchanged | Purity (%) ([8]; 92.5% RH, 1 week): 98.03% | Relative purity ([8]; 92.5% RH, 1 week): 100.2% | Crystal form change ([8]; 92.5% RH, 2 weeks): Unchanged | Purity (%) ([8]; 92.5% RH, 2 weeks): 98.00% | Relative purity ([8]; 92.5% RH, 2 weeks): 100.2% | Crystal form change [8, 10]: Unchanged | Purity (%) [8, 10]: 98.00% | Relative purity [8, 10]: 100.2% | Crystal form change ([8]; Starting sample): Unchanged | Purity (%) ([8]; Starting sample): 97.85% | Crystal form change [8, 11]: Unchanged | Purity (%) [8, 11]: 96.62% | Relative purity [8, 11]: 98.7% | solid stability (conclusion) ([8]; high temperature, high humidity, light, 60° C./75% RH, 40° C./75% RH): good solid stability | pressure stability (conclusion) ([9]; about 350 MPa): good pressure stability | crystal form change after being pressed (XRPD) ([9]; pressure of about 350 MPa): did not change
Structure (SMILES): C=CC(=O)N1CCN(c2nc(N3CC(N(CC)CC)C3)nc3c(=O)n(-c4c(N)c(Cl)cc(Cl)c4F)c(C(F)(F)F)cc23)CC1 [crystal form C]
